The record followed here is US9018175B2 (Takeda GmbH, priority 2009, dated 2015).

One experiment concerns the target T1, human PDE5 (Homo sapiens, UniProt O76074).
T1 construct: from tissue; host or cells: human platelets from fresh donor blood (10,000 g supernatant of sonicated platelets)
In words: Inhibition of PDE5 activity (SPA, [3H]cGMP, platelet lysate). Format: biochemical. To be noted: PDE5 from human platelet lysate; values given as bins; read-out: PDE5A inhibitory values measured as −logIC50 (converted). As to the method: As a source for human PDE5, platelets are used. For that purpose, 150 ml fresh blood from human donors anticoagulated with citrate [final concentration 0.3% (w/v)] is centrifuged at 200 g for 10 min to obtain the so-called platelet-rich-plasma (PRP) as a supernatant. 1/10 volume of ACD solution (85 mM Na3-citrate, 111 mM D-glucose, 71 mM citric acid, pH 4.4) is added to 9/10 volume of PRP. After centrifugation (1,400 g, 10 min) the cell pellet is resuspended in 3 ml homogenization buffer (NaCl 140 mM, KCl 3.8 mM, EGTA (ethylene glycol tetraacetic acid) 1 mM, MgCl2 1 mM, Tris-HCl 20 mM, beta-mercaptoethanol 1 mM, pH 8.2) plus protease-inhibitor mix giving rise to the final concentrations of 0.5 mM Pefablock (Roche), 10 μM Leupeptin, 5 μM Trypsininhibitor, 2 mM Benzamidin and 10 μM Pepstatin A. The suspension is sonified and thereafter centrifuged for 15 min at 10,000 g. The resulting supernatant (platelet lysate) is used for enzymatic testings.
PDE5 activities were measured in a 96-well platform using SPA (scintillation proximity assay) yttrium silicate beads (RPNQ1050 from GE Healthcare). In a first step the PDE activity operates hydrolysis of either [^3H] cGMP (substrate) into [^3H] 5′GMP. In a second step substrate and product are distinguished following addition of SPA yttrium silicate beads. Indeed, in the presence of zinc sulphate the linear [^3H] […] Close proximity of bound [^3H] […] The test volume is 100 pl and contains 20 mM Tris buffer (pH 7.4), 0.1 mg of BSA (bovine serum albumin)/ml, 5 mM Mg^2+, 1 μM motapizone (PDE3 Inhibitor), 10 nM PDE2 inhibitor 2-(3,4-dimethoxybenzyl)-7-[(1R,2R)-2-hydroxy-1-(2-phenylethyl)propyl]-5-methylimidazo[5,1-f][1,2,4]triazin-4(3H)-one, […] (cyclic guanosine monophosphate) (including about 50,000 cpm of [3H]cGMP as a tracer), 1 pl of the respective compound dilution in dimethylsulfoxide (DMSO) and sufficient PDE5-containing platelet lysat (10,000, g supernatant, see above) to ensure that 10-20 wt % of the cGMP is converted under the said experimental conditions. […] After a preincubation of 5 min at 37° C., the reaction is started by adding the substrate (cGMP) and the assay is incubated for a further 15 min; after that, it is stopped by adding SPA beads (50 pl). In accordance with the manufacturer's instructions, the SPA beads had previously been resuspended in water, but are then diluted 1:3 (v/v) in water; the diluted solution also contains 3 mM […]3-isobutyl-1-methylxanthine (IBMX) to ensure a complete PDE activity stop. After the beads have been sedimented (>30 min), the MTP's are analyzed in commercially available luminescence detection devices. The corresponding IC50 values of the compounds for the inhibition of PDE activity are determined from the concentration-effect curves by means of non-linear regression.

The next experiment addresses T2, PDE4B1 (Homo sapiens, UniProt Q07343).
T2 construct: made in house; host or cells: SF21 insect cells (baculovirus; pCR-Bac vector)
Put plainly: Inhibition of PDE4B1 activity (SPA, [3H]cAMP). Format: biochemical. To be noted: recombinant PDE4B1 expressed in SF21 cells; 0.5 pM [sic] cAMP; values given as bins; read-out: PDE4B1 inhibitory values measured as −logIC50 (converted). As to the method:
The PDE4B1 (GB no. L20966) was a gift of Prof. M. Conti (Stanford University, USA). It was amplified from the original plasmid (pCMV5) via PCR with primers Rb18 (5′-[…]-3′) and Rb10 (5′-[…]-3′) and cloned into the pCR-Bac vector (Invitrogen, Groningen, NL).
The recombinant baculovirus was prepared by means of homologous recombination in SF9 insect cells. The expression plasmids were cotransfected with Baculo-Gold DNA (Pharmingen, Hamburg) using a standard protocol (Pharmingen, Hamburg). Wt virus-free recombinant virus supernatants were selected using plaque assay methods. After that, high-titre virus supernatants were prepared by amplifying 3 times. PDE4B1 was expressed in SF21 cells by infecting 2×10^6 cells/ml with an MOI (multiplicity of infection) between 1 and 10 in the serum-free medium Insect Express Sf9-S2 (PAA, Pasching, Austria). The cells were cultured at 28° C. for 48-72 hours, after which they were pelleted for 5-10 min at 1000×g and 4° C.
The SF21 insect cells were resuspended, at a concentration of approx. 10^7 cells/ml, in ice-cold (4° C.) homogenization buffer (20 mM Tris, pH 8.2, containing the following additions: 140 mM NaCl, 3.8 mM KCl, 1 mM EGTA, 1 mM MgCl2, 10 mM e-mercaptoethanol, 2 mM benzamidine, 0.4 mM Pefablock, 10 pM leupeptin, 10 pM pepstatin A, 5 pM trypsin inhibitor) and disrupted by ultrasonication. The homogenate was then centrifuged for 10 min at 1000, g and the supernatant was stored at −80° C. until subsequent use (see below). The protein content was determined by the Bradford method (BioRad, Munich) using BSA as the standard.
PDEB1 activities were measured in a 96-well platform using SPA (scintillation proximity assay) yttrium silicate beads (RPNQ1050 from GE Healthcare). In a first step the PDE activity operates hydrolysis of either [^3H] cAMP (substrate) into [^3H] 5′AMP. In a second step substrate and product are distinguished following addition of SPA yttrium silicate beads. Indeed, in the presence of zinc sulphate the linear [^3H] […] Close proximity of bound [^3H] […] The test volume is 100 pl and contains 20 mM Tris buffer (pH 7.4), 0.1 mg/ml of BSA, 5 mM Mg^2+, […] (including about 50,000 cpm of [3H]cAMP), 1 pl of the respective substance dilution in DMSO and sufficient recombinant PDE (1000, g supernatant, see above) to ensure that 10-20% of the cAMP is converted under the said experimental conditions. […] After a preincubation of 5 min at 37° C., the reaction is started by adding the substrate (cAMP) and the assays are incubated for a further 15 min; after that, they are stopped by adding SPA beads (50 pl). In accordance with the manufacturer's instructions, the SPA beads had previously been resuspended in water, but were then diluted 1:3 (v/v) in water; the diluted solution also contains 3 mM IBMX to ensure a complete PDE activity stop. After the beads have been sedimented (>30 min), the MTP's are analyzed in commercially available luminescence detection devices. The corresponding IC50 values of the compounds for the inhibition of PDE4B1 activity are determined from the concentration-effect curves by means of non-linear regression.

SMILES strings stand for the structures.

T2 sequence (Q07343 whole entry): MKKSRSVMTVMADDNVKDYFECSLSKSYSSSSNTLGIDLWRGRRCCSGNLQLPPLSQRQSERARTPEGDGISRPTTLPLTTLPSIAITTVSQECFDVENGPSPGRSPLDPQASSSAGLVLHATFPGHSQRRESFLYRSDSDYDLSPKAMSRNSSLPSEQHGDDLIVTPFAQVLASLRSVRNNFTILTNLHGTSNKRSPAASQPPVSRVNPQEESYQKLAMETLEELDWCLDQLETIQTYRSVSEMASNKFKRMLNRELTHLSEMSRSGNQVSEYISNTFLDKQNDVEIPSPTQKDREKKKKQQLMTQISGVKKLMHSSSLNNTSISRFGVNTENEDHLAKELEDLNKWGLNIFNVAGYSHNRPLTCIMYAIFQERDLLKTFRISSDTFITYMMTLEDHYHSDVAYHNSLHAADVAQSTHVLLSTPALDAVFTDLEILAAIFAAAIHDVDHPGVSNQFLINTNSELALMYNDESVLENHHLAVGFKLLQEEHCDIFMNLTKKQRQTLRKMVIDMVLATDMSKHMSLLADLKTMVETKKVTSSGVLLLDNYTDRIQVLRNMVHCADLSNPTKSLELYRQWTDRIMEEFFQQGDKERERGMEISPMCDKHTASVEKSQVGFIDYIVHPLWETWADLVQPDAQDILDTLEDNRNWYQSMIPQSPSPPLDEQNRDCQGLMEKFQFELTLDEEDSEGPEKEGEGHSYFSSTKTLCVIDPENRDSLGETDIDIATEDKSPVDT

Turning to `CCOc1cc2c(cc1OC)C(c1ccc(C(=O)N3CCC(n4c(=O)c5sc(-c6ccc(F)cc6OC)cc5n(Cc5nc(CC)no5)c4=O)CC3)cc1)=N[C@@H]1CCSC[C@H]21` [Example 43, 3-[1-({4-[(4aR,10bR)-9-ethoxy-8-methoxy-3,4,4a,10b-tetrahydro-1H-thiopyrano[4,3-c]isoquinolin-6-yl]phenyl}carbonyl)piperidin-4-yl]-1-[(3-ethyl-1,2,4-oxadiazol-5-yl)methyl]-6-(4-fluoro-2-methoxyphenyl)thieno[3,2-d]pyrimidine-2,4(1H,3H)-dione], the IC50 was 10 to 100 nM on human PDE5 and 1 to 10 nM on PDE4B1.

As to `CCOc1cc2c(cc1OC)C(c1ccc(C(=O)N3CCC(n4c(=O)c5sc(-c6ccccc6)cc5n(Cc5nc(CC)ns5)c4=O)CC3)cc1)=N[C@@H]1CCSC[C@H]21` [Example 22, 3-[1-({4-[(4aR,10bR)-9-ethoxy-8-methoxy-3,4,4a,10b-tetrahydro-1H-thiopyrano[4,3-c]isoquinolin-6-yl]phenyl}carbonyl)piperidin-4-yl]-1-[(3-ethyl-1,2,4-thiadiazol-5-yl)methyl]-6-phenylthieno[3,2-d]pyrimidine-2,4(1H,3H)-dione], the IC50 on human PDE5 was 10 to 100 nM; at PDE4B1, 1 to 10 nM.

In the case of `CCOc1cc2c(cc1OC)C(c1ccc(C(=O)N3CCC(n4c(=O)c5sc(-c6ccccc6)cc5n(Cc5nnn(CC)n5)c4=O)CC3)cc1)=N[C@@H]1CCSC[C@H]21` [Example 14, 3-[1-({4-[(4aR,10bR)-9-ethoxy-8-methoxy-3,4,4a,10b-tetrahydro-1H-thiopyrano[4,3-c]isoquinolin-6-yl]phenyl}carbonyl)piperidin-4-yl]-1-[(2-ethyl-2H-tetrazol-5-yl)methyl]-6-phenylthieno[3,2-d]pyrimidine-2,4(1H,3H)-dione], the IC50 at human PDE5 was below 10 nM; at PDE4B1, above 10 nM.

In the case of `CCOc1cc2c(cc1OC)C(c1ccc(C(=O)N3CCC(n4c(=O)c5sc(-c6ccccc6)cc5n(Cc5nc(C)cs5)c4=O)CC3)cc1)=N[C@@H]1CCSC[C@H]21` [Example 13, 3-[1-({4-[(4aR,10bR)-9-ethoxy-8-methoxy-3,4,4a,10b-tetrahydro-1H-thiopyrano[4,3-c]isoquinolin-6-yl]phenyl}carbonyl)piperidin-4-yl]-1-[(4-methyl-1,3-thiazol-2-yl)methyl]-6-phenylthieno[3,2-d]pyrimidine-2,4(1H,3H)-dione], the IC50 on human PDE5 was above 100 nM; on PDE4B1, 1 to 10 nM.

For the compound `CCOc1cc2c(cc1OC)C(c1ccc(C(=O)N3CCC(n4c(=O)c5sc(-c6ccccc6F)cc5n(Cc5nc(CC)no5)c4=O)CC3)cc1)=N[C@@H]1CCSC[C@H]21` [Example 48, 3-[1-({4-[(4aR,10bR)-9-ethoxy-8-methoxy-3,4,4a,10b-tetrahydro-1H-thiopyrano[4,3-c]isoquinolin-6-yl]phenyl}carbonyl)piperidin-4-yl]-1-[(3-ethyl-1,2,4-oxadiazol-5-yl)methyl]-6-(2-fluorophenyl)thieno[3,2-d]pyrimidine-2,4(1H,3H)-dione], the figures for the IC50 on human PDE5 and on PDE4B1 were below 10 nM and 1 to 10 nM, respectively.

On to `CCOc1cc2c(cc1OC)C(c1ccc(C(=O)N3CCC(n4c(=O)c5sc(-c6ccccc6)cc5n(Cc5nc(CSC)no5)c4=O)CC3)cc1)=N[C@@H]1CCSC[C@H]21` [Example 11, 3-[1-({4-[(4aR,10bR)-9-ethoxy-8-methoxy-3,4,4a,10b-tetrahydro-1H-thiopyrano[4,3-c]isoquinolin-6-yl]phenyl}carbonyl)piperidin-4-yl]-1-({3-[(methylsulfanyl)methyl]-1,2,4-oxadiazol-5-yl}methyl)-6-phenylthieno[3,2-d]pyrimidine-2,4(1H,3H)-dione], for which the IC50 on human PDE5 was below 10 nM; on PDE4B1 it was 1 to 10 nM.

Consider `CCOc1cc2c(cc1OC)C(c1ccc(C(=O)N3CCC(n4c(=O)c5sc(-c6ccccc6)cc5n(Cc5ccn(CC)n5)c4=O)CC3)cc1)=N[C@@H]1CCSC[C@H]21` [Example 18, 3-[1-({4-[(4aR,10bR)-9-ethoxy-8-methoxy-3,4,4a,10b-tetrahydro-1H-thiopyrano[4,3-c]isoquinolin-6-yl]phenyl}carbonyl)piperidin-4-yl]-1-[(1-ethyl-1H-pyrazol-3-yl)methyl]-6-phenylthieno[3,2-d]pyrimidine-2,4(1H,3H)-dione], for which the IC50 at human PDE5 was above 100 nM; on PDE4B1, 1 to 10 nM.

For `CCOc1cc2c(cc1OC)C(c1ccc(C(=O)N3CCC(n4c(=O)c5sc(-c6ccccc6)cc5n(Cc5nnnn5COC)c4=O)CC3)cc1)=N[C@@H]1CCSC[C@H]21` [Example 29, 3-[1-({4-[(4aR,10bR)-9-ethoxy-8-methoxy-3,4,4a,10b-tetrahydro-1H-thiopyrano[4,3-c]isoquinolin-6-yl]phenyl}carbonyl)piperidin-4-yl]-1-{[1-(methoxymethyl)-1H-tetrazol-5-yl]methyl}-6-phenylthieno[3,2-d]pyrimidine-2,4(1H,3H)-dione], the IC50 was below 10 nM on human PDE5 and below 1 nM at PDE4B1.

For the compound `CCOc1cc2c(cc1OC)C(c1ccc(C(=O)N3CCC(n4c(=O)c5sc(-c6ccccc6)cc5n(Cc5nnc(C(C)(C)C)o5)c4=O)CC3)cc1)=N[C@@H]1CCSC[C@H]21` [Example 58, 1-[(5-tert-butyl-1,3,4-oxadiazol-2-yl)methyl]-3-[1-({4-[(4aR,10bR)-9-ethoxy-8-methoxy-3,4,4a,10b-tetrahydro-1H-thiopyrano[4,3-c]isoquinolin-6-yl]phenyl}carbonyl)piperidin-4-yl]-6-phenylthieno[3,2-d]pyrimidine-2,4(1H,3H)-dione], the values for the IC50 at human PDE5 and on PDE4B1 were above 100 nM and 1 to 10 nM, respectively.
